According to US9879002B2, “PDE10 inhibitors and related compositions and methods” (Omeros Corporation, priority 2015, dated 2018):
Converted amounts (≈) assume the structure as drawn. Read-outs that look alike come from different tables or passages of the source.

Experiments:
[1] = Solubility assay in simulated Intestinal Fluid pH 7.5; assay type: physicochemical; conditions: fassgf or other biorelevant, kinetic from dmso stock, shaken 24 hours at room temperature, from 10 mM DMSO stock, detection limit approximately 1 μM, read-out: Solubility test results: Conc. (μM), pH 7.5 (IF)
Procedure: Solubility of each compound was measured by adding 4 μl of a 10 mM DMSO compound stock to 396 μl buffer (either a simulated Gastric Fluid pH 1.2 (0.2% NaCl, 0.7% HCl) or simulated Intestinal Fluid pH 7.5 (0.68% KHPO4, pH with NaOH)). This was shaken for 24 hours at room temperature, spun at 14,000 rpm for 5 minutes, and the supernatant was transferred into a clean eppendorf tube. The absorption spectra of the compound-containing supernatant were measured from 220 to 400 nm and compared with the absorption spectra of a 10 μM acetonitrile stock of the same compound. The concentration of the compound in the supernatant was calculated by comparing the absorbance maximum of the compound in the simulated buffer to that in acetonitrile.

PDE10 [2] = biological target: PDE10 (Homo sapiens, UniProt Q9Y233); assay: PDE10 biochemical assay (scintillation proximity assay, [3H]-cGMP substrate)
Procedure: The phosphodiesterase (PDE) activity was measured using a scintillation proximity assay (SPA) with [^3H]-cGMP as the substrate. Purified PDE10 was stored in 40 mM Tris-Cl (pH 8.0)/100 mM NaCl/0.04% Tween-20/20% Glycerol/3 mM DTT and then used to prepare a 10×PDE solution in 50 mM Tris-Cl (pH 7.5)/8.3 mM MgCl2/1.7 mM EGTA. Assays contained (final concentrations): 50 mM Tris-Cl (pH 7.5)/8.3 mM MgCl2/1.7 mM EGTA/0.5 mg/ml BSA/1% DMSO and 2 ng PDE10 in a final volume of 0.1 mL. Inhibition was evaluated at 8 concentrations in duplicate. Reactions were initiated by addition of enzyme and were terminated after 20 minutes at 30° C. by the addition of 50 μl of SPA beads containing Zn^++. The mixture was shaken, allowed to settle for at least 1 hour, and counted in a Wallac plate counter. Results (net cpm) were fitted to a four parameter logistic model using Excel Solver®.

PDE10 [3] = biological target: T1, PDE10 (Mus musculus, UniProt Q8CA95); conditions: cited from Soderling and Beavo 2000; read-out: IC50 (50% inhibitory concentration); cited from earlier work
T1 sequence (Q8CA95 1-790): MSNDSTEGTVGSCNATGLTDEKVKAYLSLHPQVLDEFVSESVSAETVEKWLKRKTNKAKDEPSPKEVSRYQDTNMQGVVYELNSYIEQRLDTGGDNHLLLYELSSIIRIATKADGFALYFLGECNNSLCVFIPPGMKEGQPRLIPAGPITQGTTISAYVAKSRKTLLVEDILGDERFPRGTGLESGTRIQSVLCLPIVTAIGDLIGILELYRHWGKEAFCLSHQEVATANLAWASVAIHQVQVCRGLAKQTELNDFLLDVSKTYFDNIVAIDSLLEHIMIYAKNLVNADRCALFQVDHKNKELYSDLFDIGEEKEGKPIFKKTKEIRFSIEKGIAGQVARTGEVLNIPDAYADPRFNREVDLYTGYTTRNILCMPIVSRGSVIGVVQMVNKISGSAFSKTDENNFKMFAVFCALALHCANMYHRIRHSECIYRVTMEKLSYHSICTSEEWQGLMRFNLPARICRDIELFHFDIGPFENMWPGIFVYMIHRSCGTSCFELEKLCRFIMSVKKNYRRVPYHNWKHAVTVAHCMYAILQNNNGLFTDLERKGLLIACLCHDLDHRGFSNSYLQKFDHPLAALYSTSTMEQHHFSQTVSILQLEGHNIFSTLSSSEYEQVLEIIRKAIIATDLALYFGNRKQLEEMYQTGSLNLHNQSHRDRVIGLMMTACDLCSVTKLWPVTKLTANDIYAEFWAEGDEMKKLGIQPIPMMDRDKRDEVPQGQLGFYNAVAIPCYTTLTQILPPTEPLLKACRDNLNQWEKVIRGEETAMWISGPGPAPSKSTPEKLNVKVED

[4] = SPA, [3H]-cGMP, 20 minutes at 30° C., 8 concentrations in duplicate, read-out: Average IC50
[5] = text statement on the PDE10 biochemical assay, read-out: IC50

Sequence of PDE10 (Homo sapiens, UniProt Q9Y233) (Q9Y233 whole entry): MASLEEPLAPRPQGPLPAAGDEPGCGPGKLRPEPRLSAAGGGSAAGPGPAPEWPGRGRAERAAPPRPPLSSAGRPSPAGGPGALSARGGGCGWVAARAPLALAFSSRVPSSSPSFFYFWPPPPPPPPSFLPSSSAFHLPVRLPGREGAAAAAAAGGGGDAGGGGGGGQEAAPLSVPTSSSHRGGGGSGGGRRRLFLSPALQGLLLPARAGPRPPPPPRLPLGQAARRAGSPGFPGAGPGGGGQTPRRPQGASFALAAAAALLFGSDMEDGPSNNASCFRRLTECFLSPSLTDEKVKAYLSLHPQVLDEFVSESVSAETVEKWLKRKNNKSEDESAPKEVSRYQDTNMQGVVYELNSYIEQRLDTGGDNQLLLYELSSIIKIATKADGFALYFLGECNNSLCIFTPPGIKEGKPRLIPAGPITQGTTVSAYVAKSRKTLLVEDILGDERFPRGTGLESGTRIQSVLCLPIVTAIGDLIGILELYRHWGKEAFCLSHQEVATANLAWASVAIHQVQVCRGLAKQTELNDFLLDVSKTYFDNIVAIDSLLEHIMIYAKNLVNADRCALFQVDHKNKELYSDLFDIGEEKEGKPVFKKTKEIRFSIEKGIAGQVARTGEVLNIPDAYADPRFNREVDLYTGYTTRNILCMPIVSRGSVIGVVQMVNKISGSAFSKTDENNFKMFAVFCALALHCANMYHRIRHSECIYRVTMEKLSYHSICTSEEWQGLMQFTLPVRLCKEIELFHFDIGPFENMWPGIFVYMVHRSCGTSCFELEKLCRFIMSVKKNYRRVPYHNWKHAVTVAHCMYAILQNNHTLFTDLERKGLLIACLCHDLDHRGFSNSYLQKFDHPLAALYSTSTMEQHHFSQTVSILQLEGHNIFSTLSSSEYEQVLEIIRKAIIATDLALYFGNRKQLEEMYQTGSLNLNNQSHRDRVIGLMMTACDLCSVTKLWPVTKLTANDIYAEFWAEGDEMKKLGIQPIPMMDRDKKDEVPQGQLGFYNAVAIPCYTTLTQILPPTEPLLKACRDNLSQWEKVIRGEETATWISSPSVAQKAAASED

Row | SMILES | solubility at 24 h [1] [µM] | IC50 (PDE10 [2]; [4]) [nM] | IC50 (PDE10 [2]; [5]) [nM] | IC50 (PDE10 [3]) [nM]
1 | CCOC(C(=O)c1ccc(-c2cc(O)c(Cl)c(OC)c2)o1)c1ccc(-c2nnc(C)s2)cc1 (centres unmarked) [Compound 1, 1-[5-(4-chloro-3-hydroxy-5-methoxyphenyl)furan-2-yl]-2-ethoxy-2-[4-(5-methyl-1,3,4-thiadiazol-yl)phenyl]ethanone] | 2.5 (≈ 1.21 µg/mL) | 37.7 | ≤ 1000 | –
2 | CCOC(C(=O)c1ccc(-c2cc(OC)c(Cl)c(OC)c2)o1)c1ccc(-c2nnc(CO)s2)cc1 (centres unmarked) [Compound 2, 1-(5-(4-chloro-3,5-dimethoxyphenyl)furan-2-yl)-2-ethoxy-2-(4-(5-(hydroxymethyl)-1,3,4-thiadiazol-2-yl)phenyl)ethan-1-one] | 5.8 (≈ 2.99 µg/mL) | 1.3 | ≤ 1000 | –
3 | CC(C)Cn1c(=O)n(C)c(=O)c2[nH]cnc21 [IBMX] | – | – | – | 2600

Second part, led by results:

Row | solubility at 24 h [1] [µM] | IC50 (PDE10 [2]; [4]) [nM] | IC50 (PDE10 [2]; [5]) [nM] | SMILES | IC50 (PDE10 [3]) [nM]
4 | 78.3 (≈ 51.8 µg/mL) | 652 | ≤ 1000 | CCOC(C(=O)c1ccc(-c2cc(OC)c(Cl)c(O[C@H]3O[C@H](C(=O)O)[C@@H](O)[C@H](O)[C@H]3O)c2)o1)c1ccc(-c2nnc(C)s2)cc1 (stereo partly drawn) [Compound 3, (2S,3S,4S,5R,6R)-6-(2-chloro-5-(5-(2-ethoxy-2-(5-methyl-1,3,4-thiadiazol-2-yl)phenyl)acetyl)furan-2-yl-methoxyphenoxy)-3,4,5-trihydroxytetrahydro-2H-pyran-2-carboxylic acid] | –
5 | 2.5 (≈ 1.25 µg/mL) | 127 | ≤ 1000 | CCOC(c1ccc(-c2nnc(C)s2)cc1)C(O)c1ccc(-c2cc(OC)c(Cl)c(OC)c2)o1 (centres unmarked) [Compound 4, 1-(5-(4-chloro-3,5-dimethoxyphenyl)furan-2-yl)-2-ethoxy-2-(4-(5-methyl-1,3,4-thiadiazol-2-yl)phenyl)ethan-1-ol] | –
6 | < 1 | – | – | CCOC(C(=O)c1ccc(-c2cc(OC)c(Cl)c(OC)c2)o1)c1ccc(-c2nnc(C)s2)cc1 (centres unmarked) [Compound A, 1-(5-(4-chloro-3,5-dimethoxyphenyl)furan-2-yl)-2-ethoxy-2-(4-(5-methyl-l,3,4-thiadiazol-2-yl)phenyl)ethan-1-one, reference compound] | –
